Paper PMC6450621, “Changes of drug pharmacokinetics mediated by downregulation of kidney organic cation transporters Mate1 and Oct2 in a rat model of hyperuricemia” (PLoS ONE, 2019)
Several values for one entry are separate records, joined by “and”; a condition that tells them apart may be missing. Equal values may be shown once.

How the values were obtained:
in vivo = conditions: rat, plasma, intravenous
[1] = metformin; used for control and hyperuricemic rats; cited from earlier work
[2] = Pharmacokinetic study after intravenous administration in control and hyperuricemic rats (plasma, urine, kidney); conditions: for Kp, kidney: 4 h after iv metformin 30 mg/kg; for CL renal / concentration at 0 min / concentration at 0.5 min / concentration at 2 min / concentration at 5 min / concentration at 30 min / concentration at 60 min / AUC(0-t) / AUC(0-inf) / dose excreted at 10 min / dose excreted at 20 min / dose excreted at 30 min / dose excreted at 60 min / dose excreted at 120 min / dose excreted at 240 min / dose excreted: rat; for CL renal: plasma and urine, CLR; for CL renal / AUC(0-t) / AUC(0-inf): iv; for concentration at 0 min / concentration at 0.5 min / concentration at 2 min / concentration at 5 min / concentration at 30 min / concentration at 60 min / AUC(0-t) / AUC(0-inf): plasma; for concentration at 0 min / concentration at 0.5 min / concentration at 2 min / concentration at 5 min / concentration at 30 min / concentration at 60 min / dose excreted at 10 min / dose excreted at 20 min / dose excreted at 30 min / dose excreted at 60 min / dose excreted at 120 min / dose excreted at 240 min / dose excreted: intravenous; for concentration at 0 min / concentration at 0.5 min / concentration at 2 min / concentration at 5 min / concentration at 30 min / concentration at 60 min: Plasma concentration; for AUC(0-inf): AUCinf; for dose excreted at 10 min / dose excreted at 20 min / dose excreted at 30 min / dose excreted at 60 min / dose excreted at 120 min / dose excreted at 240 min / dose excreted: urine; for dose excreted at 10 min / dose excreted at 20 min / dose excreted at 30 min / dose excreted at 60 min / dose excreted at 120 min / dose excreted at 240 min: Urinary recovery (cumulative); for dose excreted: Urinary Recovery;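 for all read-outs here: Pentobarbital-anesthetized rats with cannulated bladder, jugular plasma, timed urine and saline kidney homogenate assayed by HPLC or LC-MS/MS, Kp as kidney over plasma level at 4 h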
[3] = control rats, 0 min after iv metformin 30 mg/kg or cephalexin 10 mg/kg, individual rat
[4] = control rats, 0.5 min after iv metformin 30 mg/kg or cephalexin 10 mg/kg (creatinine endogenous), individual rat
[5] = control rats, 2 min after iv metformin 30 mg/kg or cephalexin 10 mg/kg, individual rat
[6] = control rats, 5 min after iv metformin 30 mg/kg or cephalexin 10 mg/kg, individual rat
[7] = control rats, 30 min after iv metformin 30 mg/kg or cephalexin 10 mg/kg (creatinine endogenous), individual rat
[8] = control rats, 60 min after iv metformin 30 mg/kg or cephalexin 10 mg/kg (creatinine endogenous), individual rat
[9] = control rats, iv metformin 30 mg/kg, individual rat
[10] = hyperuricemic rats, 0 min after iv metformin 30 mg/kg or cephalexin 10 mg/kg, individual rat
[11] = hyperuricemic rats, 0.5 min after iv metformin 30 mg/kg or cephalexin 10 mg/kg (creatinine endogenous), individual rat
[12] = hyperuricemic rats, 2 min after iv metformin 30 mg/kg or cephalexin 10 mg/kg, individual rat
[13] = hyperuricemic rats, 30 min after iv metformin 30 mg/kg or cephalexin 10 mg/kg (creatinine endogenous), individual rat
[14] = hyperuricemic rats, 60 min after iv metformin 30 mg/kg or cephalexin 10 mg/kg (creatinine endogenous), individual rat
[15] = hyperuricemic rats, iv metformin 30 mg/kg, individual rat
[16] = 30 mg/kg, control rats, iv metformin 30 mg/kg, individual rat
[17] = 30 mg/kg, hyperuricemic rats, iv metformin 30 mg/kg, individual rat
[18] = control rats, iv metformin 30 mg/kg or cephalexin 10 mg/kg, mean n=3
[19] = hyperuricemic rats, iv metformin 30 mg/kg or cephalexin 10 mg/kg, mean n=3

CN(C)C(=N)N=C(N)N [Metformin, metformin]
concentration at 15 min (in vivo): 67.3 µM
concentration at 120 min (in vivo): 3.94 µM
fu [1]: 0.85 [27]
Plasma concentration [2, 3]: 750 µM and 1198 µM
Plasma concentration [2, 4]: 571 µM and 817 µM
Plasma concentration [2, 5]: 293 µM and 304 µM
Plasma concentration [2, 6]: 154 µM and 164 µM
Urinary recovery (cumulative) ([2]; control rats, 20 min after iv metformin 30 mg/kg, individual rat): 26.0 % of dose and 21.2 % of dose and 46.7 % of dose
Plasma concentration [2, 7]: 33.2 µM and 34.5 µM
Urinary recovery (cumulative) ([2]; control rats, 30 min after iv metformin 30 mg/kg, individual rat): 43.9 % of dose and 27.9 % of dose and 51.8 % of dose
Plasma concentration [2, 8]: 13.0 µM and 12.8 µM
Urinary recovery (cumulative) ([2]; control rats, 60 min after iv metformin 30 mg/kg, individual rat): 44.6 % of dose and 64.4 % of dose
Urinary recovery (cumulative) ([2]; control rats, 120 min after iv metformin 30 mg/kg, individual rat): 63.3 % of dose and 72.5 % of dose
Urinary recovery (cumulative) ([2]; control rats, 240 min after iv metformin 30 mg/kg, individual rat): 72.0 % of dose and 76.4 % of dose
Kp, kidney ([2]; control rats, individual rat): 2.8 and 35.8 and 11.4
AUC0-4 [2, 9]: 5208 µM·min and 5490 µM·min
AUCinf [2, 9]: 5393 µM·min and 5550 µM·min
CLR [2, 9]: 23.6 mL/min/kg and 23.7 mL/min/kg
Plasma concentration [2, 10]: 796 µM and 923 µM
Plasma concentration [2, 11]: 780 µM and 862 µM
Plasma concentration [2, 12]: 336 µM and 407 µM
Plasma concentration ([2]; hyperuricemic rats, 5 min after iv metformin 30 mg/kg or cephalexin 10 mg/kg, individual rat): 86 µM and 154 µM and 193 µM
Urinary recovery (cumulative) ([2]; hyperuricemic rats, 10 min after iv metformin 30 mg/kg, individual rat): 16.7 % of dose and 11.6 % of dose
Urinary recovery (cumulative) ([2]; hyperuricemic rats, 20 min after iv metformin 30 mg/kg, individual rat): 26.1 % of dose and 20.0 % of dose
Plasma concentration [2, 13]: 54.0 µM and 44.1 µM
Urinary recovery (cumulative) ([2]; hyperuricemic rats, 30 min after iv metformin 30 mg/kg, individual rat): 31.6 % of dose and 27.5 % of dose
Plasma concentration [2, 14]: 26.4 µM and 27.5 µM
Urinary recovery (cumulative) ([2]; hyperuricemic rats, 60 min after iv metformin 30 mg/kg, individual rat): 41.1 % of dose and 37.0 % of dose
Urinary recovery (cumulative) ([2]; hyperuricemic rats, 120 min after iv metformin 30 mg/kg, individual rat): 49.6 % of dose and 47.8 % of dose
Urinary recovery (cumulative) ([2]; hyperuricemic rats, 240 min after iv metformin 30 mg/kg, individual rat): 63.2 % of dose and 59.1 % of dose
Kp, kidney ([2]; hyperuricemic rats, individual rat): 94.7 and 122.2 and 54.1
AUC0-4 [2, 15]: 7033 µM·min and 4854 µM·min
AUCinf [2, 15]: 7159 µM·min and 4997 µM·min
CLR [2, 15]: 14.3 mL/min/kg and 23.7 mL/min/kg
(CLR/fu)/CLInulin Fold Change ([2]; hyperuricemic vs control rats): 1.00
AUC0-4 Fold Change ([2]; hyperuricemic vs control rats): 1.10
AUCinf Fold Change ([2]; hyperuricemic vs control rats): 1.10
CLR Fold Change ([2]; hyperuricemic vs control rats): 0.80
Kp, kidney Fold Change ([2]; hyperuricemic vs control rats): 5.44
Urinary Recovery Fold Change ([2]; hyperuricemic vs control rats): 0.85
CL renal [2, 16]: 21.7 mL/min/kg
CL renal [2, 17]: 16.8 mL/min/kg
CL renal ([2]; control rats, iv metformin 30 mg/kg or cephalexin 10 mg/kg, creatinine endogenous, mean n=3): 23 mL/min/kg
CL renal ([2]; hyperuricemic rats, iv metformin 30 mg/kg or cephalexin 10 mg/kg, creatinine endogenous, mean n=3): 18.3 mL/min/kg
concentration at 0 min [2, 3]: 1270 µM
concentration at 0 min ([2]; control rats, 0 min after iv metformin 30 mg/kg or cephalexin 10 mg/kg, mean n=3): 1070 µM
concentration at 0.5 min [2, 4]: 871 µM
concentration at 0.5 min ([2]; control rats, 0.5 min after iv metformin 30 mg/kg or cephalexin 10 mg/kg (creatinine endogenous), mean n=3): 753 µM
concentration at 2 min [2, 5]: 385 µM
concentration at 2 min ([2]; control rats, 2 min after iv metformin 30 mg/kg or cephalexin 10 mg/kg, mean n=3): 328 µM
concentration at 5 min [2, 6]: 159 µM
concentration at 5 min ([2]; control rats, 5 min after iv metformin 30 mg/kg or cephalexin 10 mg/kg, mean n=3): 159 µM
concentration at 30 min [2, 7]: 37 µM
concentration at 30 min ([2]; control rats, 30 min after iv metformin 30 mg/kg or cephalexin 10 mg/kg (creatinine endogenous), mean n=3): 34.9 µM
concentration at 60 min [2, 8]: 14.4 µM
concentration at 60 min ([2]; control rats, 60 min after iv metformin 30 mg/kg or cephalexin 10 mg/kg (creatinine endogenous), mean n=3): 13.4 µM
concentration at 0 min [2, 10]: 676 µM
concentration at 0 min ([2]; hyperuricemic rats, 0 min after iv metformin 30 mg/kg or cephalexin 10 mg/kg, mean n=3): 798 µM
concentration at 0.5 min [2, 11]: 578 µM
concentration at 0.5 min ([2]; hyperuricemic rats, 0.5 min after iv metformin 30 mg/kg or cephalexin 10 mg/kg (creatinine endogenous), mean n=3): 740 µM
concentration at 2 min [2, 12]: 267 µM
concentration at 2 min ([2]; hyperuricemic rats, 2 min after iv metformin 30 mg/kg or cephalexin 10 mg/kg, mean n=3): 337 µM
concentration at 5 min ([2]; hyperuricemic rats, 5 min after iv metformin 30 mg/kg or cephalexin 10 mg/kg, mean n=3): 144 µM
concentration at 30 min [2, 13]: 30 µM
concentration at 30 min ([2]; hyperuricemic rats, 30 min after iv metformin 30 mg/kg or cephalexin 10 mg/kg (creatinine endogenous), mean n=3): 42.7 µM
concentration at 60 min [2, 14]: 20.6 µM
concentration at 60 min ([2]; hyperuricemic rats, 60 min after iv metformin 30 mg/kg or cephalexin 10 mg/kg (creatinine endogenous), mean n=3): 24.9 µM
AUC(0-t) ([2]; 30 mg/kg, AUC0-4, control rats, iv metformin 30 mg/kg, individual rat): 98.2 µM·h
AUC(0-t) ([2]; 30 mg/kg, AUC0-4, hyperuricemic rats, iv metformin 30 mg/kg, individual rat): 107 µM·h
AUC(0-inf) [2, 16]: 99.5 µM·h
AUC(0-inf) [2, 17]: 109 µM·h
AUC(0-t) ([2]; AUC0-4, control rats, iv metformin 30 mg/kg or cephalexin 10 mg/kg, creatinine endogenous, mean n=3): 92.2 µM·h
AUC(0-t) ([2]; AUC0-4, hyperuricemic rats, iv metformin 30 mg/kg or cephalexin 10 mg/kg, creatinine endogenous, mean n=3): 102 µM·h
AUC(0-inf) [2, 18]: 94 µM·h
AUC(0-inf) [2, 19]: 104 µM·h
dose excreted at 10 min ([2]; 30 mg/kg, control rats, 10 min after iv metformin 30 mg/kg, mean n=3): 17.8%
dose excreted at 20 min ([2]; 30 mg/kg, control rats, 20 min after iv metformin 30 mg/kg, mean n=3): 31.3%
dose excreted at 30 min ([2]; 30 mg/kg, control rats, 30 min after iv metformin 30 mg/kg, mean n=3): 41.2%
dose excreted at 60 min ([2]; 30 mg/kg, control rats, 60 min after iv metformin 30 mg/kg, individual rat): 57.8%
dose excreted at 60 min ([2]; 30 mg/kg, control rats, 60 min after iv metformin 30 mg/kg, mean n=3): 55.6%
dose excreted at 120 min ([2]; 30 mg/kg, control rats, 120 min after iv metformin 30 mg/kg, individual rat): 61.5%
dose excreted at 120 min ([2]; 30 mg/kg, control rats, 120 min after iv metformin 30 mg/kg, mean n=3): 65.7%
dose excreted at 240 min ([2]; 30 mg/kg, control rats, 240 min after iv metformin 30 mg/kg, individual rat): 75.1%
dose excreted at 10 min ([2]; 30 mg/kg, hyperuricemic rats, 10 min after iv metformin 30 mg/kg, individual rat): 15.5%
dose excreted at 10 min ([2]; 30 mg/kg, hyperuricemic rats, 10 min after iv metformin 30 mg/kg, mean n=3): 14.6%
dose excreted at 20 min ([2]; 30 mg/kg, hyperuricemic rats, 20 min after iv metformin 30 mg/kg, individual rat): 26.9%
dose excreted at 20 min ([2]; 30 mg/kg, hyperuricemic rats, 20 min after iv metformin 30 mg/kg, mean n=3): 24.3%
dose excreted at 30 min ([2]; 30 mg/kg, hyperuricemic rats, 30 min after iv metformin 30 mg/kg, individual rat): 35.7%
dose excreted at 30 min ([2]; 30 mg/kg, hyperuricemic rats, 30 min after iv metformin 30 mg/kg, mean n=3): 31.6%
dose excreted at 60 min ([2]; 30 mg/kg, hyperuricemic rats, 60 min after iv metformin 30 mg/kg, individual rat): 46%
dose excreted at 60 min ([2]; 30 mg/kg, hyperuricemic rats, 60 min after iv metformin 30 mg/kg, mean n=3): 41.4%
dose excreted at 120 min ([2]; 30 mg/kg, hyperuricemic rats, 120 min after iv metformin 30 mg/kg, individual rat): 56.1%
dose excreted at 120 min ([2]; 30 mg/kg, hyperuricemic rats, 120 min after iv metformin 30 mg/kg, mean n=3): 51.1%
dose excreted at 240 min ([2]; 30 mg/kg, hyperuricemic rats, 240 min after iv metformin 30 mg/kg, individual rat): 67.5%
dose excreted at 240 min ([2]; 30 mg/kg, hyperuricemic rats, 240 min after iv metformin 30 mg/kg, mean n=3): 63.3%
dose excreted [2, 18]: 74.5%
dose excreted [2, 19]: 63.3%
